Source: patent US8758731B2, “Skin lightening by topical application of 1-hydroxyl 3,5-bis(4′hydroxyl styryl)benzene” (Johnson & Johnson Consumer Companies, Inc., priority 2012, dated 2014)
Several values for one entry are separate records, joined by “and”; a condition that tells them apart may be missing. Equal values may be shown once.

Tests used:
[1] = tested on: murine melanoma B16(F10) cells; assay: Inhibition of UV-induced Melanogenesis test; assay type: cell-based; details: for Percent inhibition of UV-induced melanogenesis (mean ± SD): B16(F10), UVB 200 mJ/cm^2, 24 h post UVB
Description: One or more samples of B16(F10) cells were prepared and each pre-treated with a test sample followed by UVB exposure as described below. Upon treatment, UVB stimulated melanogenesis in the cells and test compounds were evaluated based on their ability to inhibit or slow down the rate of melanogenesis. The cells were lysed for protein measurement at 595 nm and melanin content at 470 nm. The potency of the test compounds were determined by comparing the % inhibition achieved by the test compounds against the treated control.
On a first day, murine melanoma B16(F10) cells were seeded in 60 mm plates with a density of ˜1 million cells per plate and incubated for […] at 37° C., 5% CO2. On day 2, the cells with a confluency rate of 90-100% were treated with test compound at a predetermined concentration (e.g. 25 mg/mL) for two hours (for test compound samples only) followed by exposure to UVB 200 mJ/cm^2 (for test samples and treated control). The cells were harvested on day 3 (24 h post UVB irradiation for test samples and treated control) and lysed in protein lysis buffer (50 mM Tris, pH 8, 2 mM EDTA, 150 mM NaCl, and 1% TRITON X 100—a nonionic surfactant purchased from BioRad Cat.#: 161-0407), and centrifuged.
The resulting supernatant was mixed well with a protein dye assay (Bio-rad protein assay reagent) and a spectrophotometer (Molecular Devices VERSAmax) was used to determine the optical density (OD) of the sample at 595 nm, which was recorded as the “protein assay OD.” The cell pellet remaining after removal of the supernatant was dissolved in alkaline DMSO buffer, and the resulting solution was similarly tested using a spectrophotometer for melanin absorbance assay at 470 nm. The absorbance was recorded as the “melanin assay OD.”
Control samples of B16(F10) murine melanoma cells were prepared and harvested as indicated above, but without addition of any test sample and without exposure to UVB (untreated control). Other samples were prepared and harvested as indicated above, but without addition of test sample and exposed to UVB as described below (treated control).
Three samples each of the untreated control, treated control, and each test sample were made and the Melanin OD and Protein OD measured for each. The normalized melanin for each untreated control (3 samples), treated control (3 samples) and test sample (3 samples for each test compound) was calculated via the following equation: Normalized Melanin=melanin assay OD/protein assay OD. The averages of the Normalized Melanin of the untreated controls and treated controls were calculated (sum of the three calculated values/3).
The Induction value of the Control (which can be thought of as the UV-induced increase in melanin, without the benefit of any test sample to reduce melanogensis) was determined by subtracting the average Normalized Melanin of untreated control from the average Normalized Melanin of treated control. Similarly, the Induction value of each test sample (which can be thought of as the amount of additional melanin over and above the baseline of the sample not treated with UV) was then calculated by subtracting average Normalized Melanin of untreated control from the Normalized Melanin of the test sample. The Percent Inhibition for each test sample was then calculated via the equation: Percent Inhibition=100×[(Induction value of Control−Induction value with Test Sample)/Induction value of Control].
The average Percent Inhibition was calculated as the sum of the three resulting Inhibition % values for each test sample divided by three.

[2] = tested on: MelanoDerm skin epidermal equivalent tissues (NHEK and NHM); assay: Inhibition of pigmentation in skin epidermal equivalent tissues (MatTek MelanoDerm MEL-300-B); assay type: cell-based, human; details: measured day 9, vs vehicle-treated control
Description: Skin epidermal equivalent tissues obtained from MatTek's MelanoDerm™ System were used as follows. MatTek's MelanoDerm™ System consists of normal, human-derived epidermal keratinocytes (NHEK) and melanocytes (NHM) which have been cultured to form a multilayered, highly differentiated model of the human epidermis. Specifically, MEL-300-B tissues, each 9 mm in diameter were used in the following tests.
1-Hydroxyl 3,5-bis(4′hydroxyl styryl)benzene and its piperazine salt were prepared in an appropriate vehicle and applied topically to the skin model daily. The experiment lasted for eight days. Measurement was taken on day 9.
The Degree of Lightness for each skin model tissue (L-Value) was measured using a spectrophotometer (Konica Minolta CM-2600d). The ΔL (degree of lightness as compared to vehicle-treated control) for each test sample was calculated using following formula: ΔL=L-value of treated sample−L-value of control sample

Mushroom tyrosinase = assay: Tyrosinase inhibition test (mushroom tyrosinase, L-dopa, OD 492 nm); assay type: biochemical; details: 10 mM L-dopa, 37° C., 30 min, duplicate
Description: Ultraviolet (UV) radiation from the sun is the most important external stimulus for melanin formation leading to skin darkening. Reducing melanin formation in the skin may be achieved by inhibiting multiple steps of the melanin biogenesis process. Tyrosinase is the key regulatory enzyme of melanogenesis. Agents that inhibit tyrosinase will reduce melanin synthesis.
1-Hydroxyl 3,5-bis(4′hydroxyl styryl)benzene (0.0001, 0.001, and 0.01% w/v) was tested for tyrosinase inhibition as follows.
Mushroom tyrosinase samples (Sigma, T7755, 10 U/reaction) were treated with the samples of 1-hydroxyl 3,5-bis(4′hydroxyl styryl)benzene and control samples. Reaction was initiated by addition of 10 mM L-dopa (Research Organics, #2111D) at 37° C. Tyrosinase activity was measured by recording light absorption (optical density) at 492 nm after 30 min for both control samples (no exposure to test compound) and test samples that were exposed to the test compound.
Percent Inhibition of Tyrosinase was related to the reduction in absorption at 492 nm (relative to the control) by the following formula: Percent Inhibition of Tyrosinase=[Tcontrol−Tsample/Tcontrol)]*100 where Tcontrol is the tyrosinase activity of the control and Tsample is the tyrosinase activity in the presence of test compound. Samples were tested in duplicate and Percent Inhibition of Tyrosinase was averaged and standard deviation was reported.

[3] = tested on: murine melanoma B16(F10) cells; assay: Inhibition of UV-induced Melanogenesis test; assay type: cell-based; details: 0.0001%; average of S1 and S2
[4] = 0.5% topically daily for eight days

Compound	Percent inhibition of UV-induced melanogenesis (mean ± SD) ([1]; 0.00001% test compound) [%]	Percent inhibition of UV-induced melanogenesis (mean ± SD) ([1]; 0.00005% test compound) [%]	Percent inhibition of UV-induced melanogenesis (mean ± SD) ([1]; 0.0001% test compound) [%]	Degree of Lightness (ΔL) ([2]; 0.1% topically daily for eight days)	Degree of Lightness (ΔL) ([2]; 0.25% topically daily for eight days)	Degree of Lightness (ΔL) [2, 4]	Percent Inhibition of Tyrosinase activity (mean ± standard deviation) (Mushroom tyrosinase; 0.0001% w/v test compound) [%]	Percent Inhibition of Tyrosinase activity (mean ± standard deviation) (Mushroom tyrosinase; 0.001% w/v test compound) [%]	Percent Inhibition of Tyrosinase activity (mean ± standard deviation) (Mushroom tyrosinase; 0.01% w/v test compound) [%]	Induction value with Test sample ([1]; 0.0001%, single test samples S1, S2, Normalized Melanin minus untreated control 0.122, listed as 1-hydroxyl 3,5-bis(4′hydroxyl styryl)benzene—Free Phenol)	Normalized Melanin value (melanin assay OD/protein assay OD) ([1]; 0.0001%, single test samples S1, S2, listed as 1-hydroxyl 3,5-bis(4′hydroxyl styryl)benzene—Free Phenol)	Percent Inhibition for Test sample (Ave) [3]
1-hydroxyl 3,5-bis(4′hydroxyl styryl)benzene - Piperazine salt	13.93 ± 11.33	33.52 ± 1.54	55.70 ± 4.44	1.46 ± 0.71	2.83 ± 0.41	4.60 ± 0.61	2.03 ± 3.94	11.52 ± 3.16	16.64 ± 2.76	–	–	–
Oc1ccc(/C=C/c2cc(O)cc(/C=C/c3ccc(O)cc3)c2)cc1 [1-Hydroxyl 3,5-bis(4′hydroxylstyryl)benzene]	18.93 ± 5.92	33.27 ± 4.39	40.49 ± 2.04	–	–	4.23 ± 0.64	3.3 ± 1.95	8.21 ± 1.27	11.84 ± 3.22	0.19 − 0.122 = 0.068 and 0.187 − 0.122 = 0.065	0.19 (S1) and 0.187 (S2)	Ave = (39.05 + 41.93)/2 = 40.49%
